The source of these data is patent US20240084002A1, “METHODS AND COMPOSITIONS UTILIZING IDO1-DEPENDENT VASCULARIZING CELLS FOR THE TREATMENT OF PATHOLOGICAL CONDITIONS INVOLVING NEOVASCULARIZATION” (LANKENAU INSTITUTE FOR MEDICAL RESEARCH, priority 2020, published 2024).

Like-named read-outs stand apart in the source and are kept apart here. Some results are limits rather than exact numbers.

In data set [1] the target is T1, IDO1 (Homo sapiens, UniProt P14902).
T1 construct: endogenous in cells; host or cells: U937 (ATCC CRL-1593.2) and HL60 (ATCC CCL-240), stimulated with IFNγ + LPS
T1 sequence (P14902 whole entry): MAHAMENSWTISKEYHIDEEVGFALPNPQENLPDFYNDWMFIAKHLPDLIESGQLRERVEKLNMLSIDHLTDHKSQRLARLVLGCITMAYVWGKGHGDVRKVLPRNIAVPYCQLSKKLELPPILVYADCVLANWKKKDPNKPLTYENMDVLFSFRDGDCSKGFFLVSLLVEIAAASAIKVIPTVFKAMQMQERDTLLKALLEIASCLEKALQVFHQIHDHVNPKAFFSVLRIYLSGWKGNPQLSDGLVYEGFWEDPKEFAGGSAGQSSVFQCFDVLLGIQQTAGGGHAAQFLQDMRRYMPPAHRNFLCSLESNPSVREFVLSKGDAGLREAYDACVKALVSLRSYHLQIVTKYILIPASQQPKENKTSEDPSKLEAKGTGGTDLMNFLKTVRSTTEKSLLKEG
Kind of data set: Kynurenine levels in supernatants of IFNγ+LPS treated U937 and HL60 cells (IDO1 activity). Format: cell-based. The following applies: inhibitor 1 μM, 24 hr. On the procedure:
Kynurenine assay. Levels of kynurenine in U937 and HL60 cell supernatants were measured using Ehrlich's reagent (p-dimethylamino-benzaldehyde). Following treatments, supernatants were collected and transferred to a V-bottom 96-well plate and mixed with 40 μL 50% (w/v) trichloroacetic acid (TCA; LabChem) to precipitate any protein. The plate was then incubated at 65° C. for 30 minutes followed by centrifugation at 1250×g for 10 minutes. Following centrifugation, 100 μL of clarified supernatant was transferred to a new flat-bottomed 96-well plate and mixed at equal volumes with 2% (w/v) Ehrlich's reagent in acetic acid. The resulting reaction was measured at 490 nm using a Synergy HT microtiter plate reader (Bio-Tek). Vitreous humor was collected from eyes of mice that underwent the OIR process. Levels of kynurenine were measured using the IDK® Kynurenin ELISA kit (Immundiagnostik AG, Bensheim, Germany) according to manufacturer's protocol. Additionally, levels of kynurenine were confirmed by high-performance liquid chromatography (HPLC) coupled to electrospray ionization liquid chromatography/ tandem mass spectroscopy (LC/MS-MS) as described (18).

Data set [2] has as its system IL6 gene expression. Briefly: qPCR of IFNγ+LPS mediated induction of IL6 gene expression in U937 and HL60 cells. The format is cell-based, human. The note with it: inhibitor 1 μM, 24 hr. The text has this: (§1) Quantitative real time PCR analysis.
(In general: Real-time PCR tracks product formation cycle by cycle.)

Another data set deals with CHOP. Kind of data set: qPCR of IFNγ+LPS mediated induction of CHOP in U937 and HL60 cells (ISR activation). Format: cell-based, human. The following applies: inhibitor 1 μM, 24 hr.
From the text: as §1

The subject of another data set is ATF4. Kind of data set: qPCR of IFNγ+LPS mediated induction of ATF4 in U937 and HL60 cells (ISR activation). The note with it: inhibitor 1 μM, 24 hr. Format: cell-based, human.
From the text: as §1

The subject of data set [3] is U937 and HL60 cells. Briefly: Viability assay (LDI Cell CountEZ TPS assay kit). The following applies: IFNγ+LPS, at the concentrations used (1 μM), 24 hrs.
Description: (§2) Viability assay. Cell viability in U937 and HL60 cells was measured by LDI Cell CountEZ™ toxicity, proliferation and survival (TPS) assay kit (LDI1201™) as per the manufacturer's protocol. Both cell lines were plated at a density of 10,000 cells/ well of a 96 well plate in 100 μl DMEM medium with 10% FBS. […] Bortezomib (20 nM; LC Laboratories, Cat# B-1408) was used as positive control for inducing cellular apoptosis. Treated cells were incubated at 37° C. in a humidified CO2 incubator for 24 hrs. The TPS assay was then performed with cell viability assessed by reading absorbance at 412 nm in a microtiter plate reader.
For data set [4], the target named is T1, IDO1. The following applies: U937 and HL60 cells, previously shown, reference (9); cited from earlier work.
Data set [5] has as its system IL6 gene expression. The following applies: U937 and HL60 cells, previously shown, reference (9); cited from earlier work.
The next data set has as its system Gr-1+ CD11b^lo cells. Kind of data set: Matrigel plug assay, neovascular density. The format is in vivo, mouse. The following applies: plugs with WT Gr-1+ CD11b^lo cells in WT mice, 50 mg/kg oral gavage b.i.d. for the final 3 days, plugs resected at day 9. On the procedure:
Matrigel Plug Assay. To assess the in vivo neovascularizing capability of select immune cell populations isolated from 4T1 pulmonary metastases, 5×10^4-2×10^6 sorted cells were isolated (as indicated in the corresponding figure legends) by fluorescence-activated cell sorting (BD FACSAria III) into RPMI+10% FCS and put on ice. Immediately following sorting, isolated immune cell populations were suspended in 250 μl PBS and combined with 250 μl Matrigel (Corning® Cat# 356237) per plug on ice for in vivo injections. Plugs were established by subcutaneous injection in the dorsal region of recipient mice using an ice-cold syringe with a 21 gauge needle. […] After 9 days post injection, the matrigel plug was harvested and images recorded with either a Samsung Galaxy S6 or an iPhone X using the 2× lens with an additional 10× macro lens attachment (Moment).
For blood vessel quantification, the Matrigel plugs were blocked in OCT and cryosectioned using the tape transfer method ([…] per plug). Following sectioning, neovascularization was visualized under confocal microscope by fluorescence staining with rabbit anti-mouse for caveolin 1 and quantitatively analyzed using Adobe Photoshop as described above. Statistical Analysis. […] Significance for Kaplan-Meier survival curves was determined by 2-group log-rank test. […]

The subject of a further data set is NOS2. Kind of data set: NOS2 staining of 4T1 lung metastases. Format: in vivo, mouse. The following applies: WT mice with 4T1 lung metastases, 50 mg/kg p.o. b.i.d. over 3 days.
Data set [6] deals with U937 and HL60 cells. The note with it: human, 24 h, 1 μM.
Description: as §2
The next data set concerns 4T1 metastases. The following applies: prior finding, reference (7); cited from earlier work.
Another data set relates to CYP1A1. Kind of data set: qPCR of IFNγ+LPS mediated induction of CYP1A1 in U937 and HL60 cells (AHR activation). The following applies: inhibitor 1 μM, 24 hr.

Description for CYP1A1: Cell culture. The 4T1 (mouse mammary carcinoma; ATCC Cat# CRL-2539) and U937 (human histiocytic lymphoma; ATCC Cat# CRL-1593.2) cell lines were cultured in DMEM supplemented with penicillin, streptomycin, 10% FBS and 55 μM β-mercaptaethanol. The HL60 (human promyelocytic leukemia; ATCC Cat# CCL-240) cell line was maintained in IMDM media supplemented with 10% FCS plus 55 μM β-mercaptaethanol, 2 mM glutamax (Life Technologies), and 50 μg/ml gentamicin. […] No mycoplasma testing was done on the U937 or HL60 cell lines. […] In vitro experiments were performed with U937 and HL60 cells maintained no longer than passage 6. […] At 24 hr mRNA was prepared from the treated cells for qPCR-based analysis of gene expression and cell culture media was analyzed for levels of kynurenine to assess IDO1 enzymatic activity.
Quantitative real time PCR analysis. […] Quantitative PCR (QPCR) reactions were run using the Fast Start Universal SYBR Green Mix (Roche Applied Science) with an Eppendorf Realplex 4 Mastercycler QPCR machine. Levels of mRNA expression detected with primers specific for Atf4, Chop Il6 and Cyp1a1 (Tables 1-3) were normalized to 18S mRNA levels and differences between treatment groups were analyzed using the δ-δ cycle threshold method.

With `O=C(COc1ccc(Cl)cc1)NC1CCC(NC(=O)COc2ccc(Cl)cc2)CC1` (stereo not drawn) [ISRIB], on IDO1 [1], the “effect on the level of kynurenine produced” value was “neither had a significant effect”. Also, in the data set on IL6 gene expression [2], the “effect on IL6 gene expression” value was “effectively blocked”. Besides, the “effect on induction of CHOP message” value in the data set with CHOP is on record as “blocked induction”. In addition, the “effect on induction of ATF4 message” value in the data set on ATF4 is “blocked induction”. Besides, the “impact on cell viability” value in the data set on U937 and HL60 cells [3] is “Neither ISRIB, Epacadostat nor BAY-218 had a sufficient impact on cell viability”.
With “methylthiohydantoin-DL-tryptophan [MTH-Trp]”, on IDO1 [4], the “IFNγ+LPS-mediated induction of IDO1 activity” value is “could be blocked”. Further, the “corresponding increase in IL6” value in the data set with IL6 gene expression [5] is “could be blocked”.
As for `NS(=O)(=O)NCCNc1nonc1C(=NO)Nc1ccc(F)c(Br)c1` [Epacadostat], in the data set with IL6 gene expression [2], the “reduction IL6 gene expression” value is at least 99%. Also, in the data set on CHOP, the “effect on induction of CHOP message” value is “effectively blocked”. Further, the “effect on induction of ATF4 message” value in the data set on ATF4 is listed as “effectively blocked”. In the data set on Gr-1+ CD11b^lo cells, the “degree of neovascularization in Matrigel plugs” value is “decreased the degree of neovascularization promoted by CD11b^lo cells to a level quantifiably indistinguishable from CD11b^hi cells”. Moreover, the “NOS2 expression within lung metastases” value in the data set on NOS2 is reported as “elicits NOS2 elevation”. Besides, the “impact on cell viability” value with U937 and HL60 cells [6] is “Neither ISRIB, Epacadostat nor BAY-218 had a sufficient impact on cell viability”. In the data set with 4T1 metastases, the “blood vessel formation within established 4T1 metastases” value is given as “reverses blood vessel formation”.
`C[C@@H](CO)NC(=O)c1cc(-c2ccc(Cl)cc2)nn(-c2cccc(F)c2)c1=O` [BAY-218]: at IDO1 [1], the “effect on the level of kynurenine produced” value was “neither had a significant effect”. The “effect on IL6 gene expression” value in the data set on IL6 gene expression [2] is on record as “no significant effect”. Moreover, the “impact on cell viability” value in the data set on U937 and HL60 cells [3] is “Neither ISRIB, Epacadostat nor BAY-218 had a sufficient impact on cell viability”. In the data set on CYP1A1, the “effect on induction of CYP1A1 message” value is listed as “blocked induction of CYP1A1”.
